The target of experiment [1] is full length recombinant Pim-1 (Homo sapiens (Human), UniProt P11309). The experiment is described as follows: Pim enzyme assay (HTRF, phosphorylation of biotinylated-BAD (S112) peptide), Pim-1. Type of experiment: biochemical. The following applies: Pim-1 enzyme assay; read-out: Pim_1_IC50.
In experiment [2] the target is full length recombinant Pim-3 (Homo sapiens (Human), UniProt Q86V86). The experiment is described as follows: Pim enzyme assay (HTRF, phosphorylation of biotinylated-BAD (S112) peptide), Pim-3. Type of experiment: biochemical. To be noted: read-out: Pim3 IC50. Put shortly: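 Full-length recombinant Pim-3 phosphorylated biotinylated BAD (S112) peptide in 60 mM Hepes pH 7.0, 0.05% BSA, 2 mM DTT for 1 h 30 min at 22 °C. After EDTA stop, HTRF was read with Eu anti-phospho-BAD and streptavidin-APC. IC50 came from 4-parameter logistic fit of percent-of-control values.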

Experiment [3] concerns Pim-1 stably transfected U2OS human osteogenic sarcoma line. The experiment is described as follows: Pim cell assay U2OS (phospho-BAD normalized against total BAD), Pim-1 transfected. Type of experiment: cell-based. To be noted: Homo sapiens, U2OS. The protocol: (§1) The cell lines used in the assay were generated by the stable transfection of either Pim-1 or Pim-2 into the U2OS human osteogenic sarcoma line. The assay for determination of the Pim activity in the engineered U2OS cell lines measures levels of phospho-BAD normalized against total BAD protein levels. It was conducted as follows:
(§2) The adherent cells were dissociated from the flasks using non-enzymatic cell dissociation solution (Sigma #C5914). […] The cells were then incubated overnight at 37° C., 5% CO2.
(§3) In addition to the 10-point dosing curve of the test compound, DMSO alone was run as the high control.
(§4) This dilution in DMSO was then diluted again into cell growth medium. Aliquots (12 μL) of the compound diluted in growth medium were then transferred to the appropriate wells of the 96-well plates containing cells to a final DMSO concentration of 0.3%. The cell plates were then incubated with compound for 29 min at 37° C., 5% CO2.
(§5) The cell plates containing lysis buffer were then immediately stored at −70° C.
(§6) These prepared lysates were then assayed for phospho and total BAD according to the manufacturer's protocols (Meso Scale Diagnostics, Cat#K15103C-3 & #K15103D-3). The plates were read on the MSD Sector Imager 6000, and results were calculated according to the assay protocols ((% Phosphoprotein=((2×Phospho signal)/(Phospho signal+Total signal))×100)).

Experiment [4] deals with Pim-2 stably transfected U2OS human osteogenic sarcoma line. The experiment is described as follows: Pim cell assay U2OS (phospho-BAD normalized against total BAD), Pim-2 transfected. Type of experiment: cell-based. The following applies: Homo sapiens; U2OS cells, Pim-2 transfected; read-out: U2OS Pim2_Cell_IC50. The protocol:
as §1, §2, §3, §4, §5, §6

Experiment [5] addresses full length recombinant Pim-2 (Homo sapiens (Human), UniProt Q9P1W9). The experiment is described as follows: Pim enzyme assay (HTRF, phosphorylation of biotinylated-BAD (S112) peptide), Pim-2. The class given is biochemical. The following applies: read-out: Pim2_IC50. On the technique in general: Time-resolved FRET reads energy transfer from a long-lived donor to a nearby acceptor.

The mark [6] stands for this setting: read-out: U2OS Pim1_Cell_IC50, U2OS cells, Pim-1 transfected.

pIC50: −log10 of the molar value. Where two headings read alike, the source gives them in different places. Some results are limits rather than exact numbers.

Sequence of full length recombinant Pim-2 (Q9P1W9 whole entry): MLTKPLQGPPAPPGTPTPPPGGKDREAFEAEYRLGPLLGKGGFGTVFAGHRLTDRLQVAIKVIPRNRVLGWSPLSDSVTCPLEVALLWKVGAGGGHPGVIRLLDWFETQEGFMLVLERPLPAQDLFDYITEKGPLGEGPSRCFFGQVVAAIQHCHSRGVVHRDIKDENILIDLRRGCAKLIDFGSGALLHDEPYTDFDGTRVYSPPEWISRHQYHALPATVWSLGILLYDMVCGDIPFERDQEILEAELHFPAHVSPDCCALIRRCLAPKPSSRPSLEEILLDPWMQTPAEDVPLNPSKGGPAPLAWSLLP
Sequence of full length recombinant Pim-1 (P11309 whole entry): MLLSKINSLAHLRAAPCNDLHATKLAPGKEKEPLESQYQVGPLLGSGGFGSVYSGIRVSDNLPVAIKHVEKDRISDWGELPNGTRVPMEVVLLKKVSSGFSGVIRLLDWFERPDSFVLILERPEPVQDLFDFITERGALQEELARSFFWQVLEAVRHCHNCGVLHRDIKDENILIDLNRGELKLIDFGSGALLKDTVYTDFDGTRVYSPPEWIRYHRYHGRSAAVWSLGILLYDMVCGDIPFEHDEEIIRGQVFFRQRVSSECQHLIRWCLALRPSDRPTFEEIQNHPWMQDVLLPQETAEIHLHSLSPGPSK

Take `Nc1nnc(-c2ccc3[nH]cc(-c4cncc(N5CCC(F)(F)CC5)n4)c3c2)o1` [Example 2, 5-(3-(6-(4,4-difluoropiperidin-1-yl)pyrazin-2-yl)-1H-indol-5-yl)-1,3,4-oxadiazol-2-amine]: the pIC50 in experiment [1] is 8.71; in experiment [2] (Pim-3 enzyme assay), 8.97; in experiment [3] (setting [6]), 7.53; in experiment [4], 6.38.
The matching figures for `Oc1nnc(-c2ccc3[nH]cc(-c4cccc(N5CCOCC5)n4)c3c2)s1` [Example 29, 5-(3-(6-morpholinopyridin-2-yl)-1H-indol-5-yl)-1,3,4-thiadiazol-2-ol]: 6.92, 7.54, 5.16 and less than 4.50.
Turning to `CC(C)Oc1cccc(-c2c[nH]c3ccc(-c4nnc(NC5CCCNC5)s4)cc23)n1` (stereo not drawn) [Example 32, 5-(3-(6-Isopropoxypyridin-2-yl)-1H-indol-5-yl)-N-(piperidin-3-yl)-1,3,4-thiadiazol-2-amine 2,2,2-trifluoroacetate], the pIC50 in experiment [2] is 8.46; in experiment [3] (setting [6]), 6.24; in experiment [4], 5.16.
With `CC(C)Oc1cccc(-c2c[nH]c3ccc(-c4nnc(N[C@@H]5CCCNC5)s4)cc23)n1` [Example 35, (R)-5-(3-(6-Isopropoxypyridin-2-yl)-1H-indol-5-yl)-N-(piperidin-3-yl)-1,3,4-thiadiazol-2-amine 2,2,2-trifluoroacetate], the pIC50 is 8.03 in experiment [1], 8.74 in experiment [2], 5.94 in experiment [3] (setting [6]) and 4.96 in experiment [4].
With `CNc1nnc(-c2ccc3[nH]cc(-c4cccc(OC(C)C)n4)c3c2)o1` [Example 41, 5-(3-(6-isopropoxypyridin-2-yl)-1H-indol-5-yl)-N-methyl-1,3,4-oxadiazol-2-amine], the pIC50 in experiment [1] is 8.19; in experiment [5], 7.71; in experiment [3] (setting [6]) it was 6.91; in experiment [4], 5.88.
`c1cc(C2CC2)nc(-c2c[nH]c3ccc(-c4nnc(C5CC5)o4)cc23)n1` [Example 43, 2-cyclopropyl-5-(3-(4-cyclopropylpyrimidin-2-yl)-1H-indol-5-yl)-1,3,4-oxadiazole]: the pIC50 is 8.12 in experiment [1], 8.36 in experiment [5] (Pim-2 enzyme assay), 6.61 in experiment [3] (read-out: U2OS Pim1_Cell_IC50) and 5.47 in experiment [4].
The matching figures for `c1cc2[nH]cc(-c3cncc(C4CC4)n3)c2cc1-c1nnc(C2CC2)o1` [Example 44, 2-Cyclopropyl-5-(3-(6-cyclopropylpyrazin-2-yl)-1H-indol-5-yl)-1,3,4-oxadiazole]: 8.00, 7.58, 6.20 and less than 4.50.
The matching figures for `FC(F)(F)CNc1nnc(-c2ccc3[nH]cc(-c4nccc(C5CC5)n4)c3c2)o1` [Example 53, 5-(3-(4-cyclopropylpyrimidin-2-yl)-1H-indol-5-yl)-N-(2,2,2-trifluoroethyl)-1,3,4-oxadiazol-2-amine]: 9.39, 9.20, 7.46 and 6.32.
The matching figures for `CC(C)Nc1cncc(-c2c[nH]c3ccc(-c4nc(N)ns4)cc23)n1` [Example 64, 5-(3-(6-(isopropylamino)pyrazin-2-yl)-1H-indol-5-yl)-1,2,4-thiadiazol-3-amine]: 8.37, 7.23, 6.70 and less than 5.00.
Regarding `Nc1nnc(-c2ccc3[nH]cc(-c4nccc(OCC(F)(F)F)n4)c3c2)o1` [Example 110, 5-(3-(4-(2,2,2-trifluoroethoxy)-2-pyrimidinyl)-1H-indol-5-yl)-1,3,4-oxadiazol-2-amine], the pIC50 is 8.33 in experiment [1], 8.62 in experiment [5] (Pim-2 enzyme assay), 6.66 in experiment [3] (read-out: U2OS Pim1_Cell_IC50) and 5.79 in experiment [4].
The corresponding values for `CN1CCCC(Nc2ccnc(-c3c[nH]c4ccc(-c5nnc(N)o5)cc34)n2)C1` (stereo not drawn) [Example 111, 2-(5-(5-amino-1,3,4-oxadiazol-2-yl)-1H-indol-3-yl)-N-(1-methyl-3-piperidinyl)-4-pyrimidinamine] are 7.73, 8.18, less than 4.50 and less than 4.50.
The corresponding values for `CN1CCCC(Oc2ccnc(-c3c[nH]c4ccc(-c5nnc(N)o5)cc34)n2)C1` (stereo not drawn) [Example 112, 5-(3-(4-((1-methyl-3-piperidinyl)oxy)-2-pyrimidinyl)-1H-indol-5-yl)-1,3,4-oxadiazol-2-amine] are 8.24, 8.54, 6.75 and 5.93.
The matching figures for `COC[C@H]1CCCN1c1ccnc(-c2c[nH]c3ccc(-c4nnc(N)o4)cc23)n1` [Example 113, 5-(3-(4-((2R)-2-(methoxymethyl)-1-pyrrolidinyl)-2-pyrimidinyl)-1H-indol-5-yl)-1,3,4-oxadiazol-2-amine]: 7.86, 7.59, 6.42 and less than 5.00.
Take `Nc1nnc(-c2ccc3[nH]cc(-c4cncc(-c5ccc(Cl)cc5)n4)c3c2)o1` [Example 114, 5-(3-(6-(4-chlorophenyl)-2-pyrazinyl)-1H-indol-5-yl)-1,3,4-oxadiazol-2-amine]: the pIC50 is 7.90 in experiment [1], 7.60 in experiment [5] (Pim-2 enzyme assay), 6.86 in experiment [3] (setting [6]) and less than 4.50 in experiment [4].
Regarding `CC(C)Oc1cccc(-c2c[nH]c3ccc(-c4nnc(N)s4)cc23)n1` [Example 157, 5-(3-(6-(1-methylethoxy)-2-pyridinyl)-1H-indol-5-yl)-1,3,4-thiadiazol-2-amine], the pIC50 was 8.11 in experiment [1], 8.00 in experiment [5] (Pim-2 enzyme assay), 6.97 in experiment [3] (read-out: U2OS Pim1_Cell_IC50) and 5.65 in experiment [4].
The matching figures for `Nc1nnc(-c2ccc3[nH]cc(-c4cccc(N5CCCCC5)n4)c3c2)s1` [Example 172, 5-(3-(6-(1-piperidinyl)-2-pyridinyl)-1H-indol-5-yl)-1,3,4-thiadiazol-2-amine]: 7.39, 7.16, 6.38 and less than 4.50.
With `Nc1nnc(-c2ccc3[nH]cc(-c4cncc(NC5CCCCC5)n4)c3c2)s1` [Example 208, 6-(5-(5-amino-1,3,4-thiadiazol-2-yl)-1H-indol-3-yl)-N-cyclohexyl-2-pyrazinamine], the pIC50 in experiment [1] is 8.50; in experiment [5] (Pim-2 enzyme assay), 7.74; in experiment [3] (setting [6]), 7.25; in experiment [4], 5.58.
As to `CNc1nnc(-c2ccc3[nH]cc(-c4cccc(OC5CCC5)n4)c3c2)s1` [Example 232, 5-(3-(6-(cyclobutyloxy)-2-pyridinyl)-1H-indol-5-yl)-N-methyl-1,3,4-thiadiazol-2-amine], the pIC50 is 7.24 in experiment [1], 6.98 in experiment [5] (Pim-2 enzyme assay), 5.77 in experiment [3] (read-out: U2OS Pim1_Cell_IC50) and less than 4.50 in experiment [4].
`C[C@H]1COCCN1c1nnc(-c2ccc3[nH]cc(-c4cncc(C5CC5)n4)c3c2)o1` [Example 248, 3-(6-cyclopropyl-2-pyrazinyl)-5-(5-((3S)-3-methyl-4-morpholinyl)-1,3,4-oxadiazol-2-yl)-1H-indole]: the pIC50 in experiment [1] is 7.86; in experiment [5] (Pim-2 enzyme assay), 7.68; in experiment [3] (setting [6]) it was 6.72; in experiment [4], less than 4.50.
Regarding `c1cc2[nH]cc(-c3cncc(C4CC4)n3)c2cc1-c1nnc(NC2COC2)o1` [Example 251, 5-(3-(6-cyclopropyl-2-pyrazinyl)-1H-indol-5-yl)-N-3-oxetanyl-1,3,4-oxadiazol-2-amine], the pIC50 is 8.49 in experiment [1], 8.23 in experiment [5] (Pim-2 enzyme assay), 6.97 in experiment [3] (read-out: U2OS Pim1_Cell_IC50) and 5.70 in experiment [4].
The corresponding values for `c1cc(C2CC2)nc(-c2c[nH]c3ccc(-c4nnc(NC5CC5)o4)cc23)n1` [Example 257, N-cyclopropyl-5-(3-(4-cyclopropyl-2-pyrimidinyl)-1H-indol-5-yl)-1,3,4-oxadiazol-2-amine] are 8.70, 8.85, 7.00 and 6.03.
The matching figures for `CC(C)Nc1nnc(-c2ccc3[nH]cc(-c4nccc(C(F)(F)F)n4)c3c2)o1` [Example 258, N-(1-methylethyl)-5-(3-(4-(trifluoromethyl)-2-pyrimidinyl)-1H-indol-5-yl)-1,3,4-oxadiazol-2-amine]: 7.86, 7.60, 6.64 and 5.43.
